Measurements as given in patent US9303069B2, “Peptides for treating cancer” (University of Mississippi Medical Center, priority 2014, dated 2016).
pIC50: −log10 of the molar value. Ends that are not written are not given here.

Experiments:
[1] = test system: BRCA1-IRIS, TrkB, ErbB2, AKT, p-AKT, p-FOXO, Cyclin D1, Bcl-2 and survivin; assay: Expression of growth and survival proteins in HOSE and HOSE/IRIS cells (Western); format: cell-based, human; details: IRIS peptide 5 μM, cisplatin 10 μM, combination 2.5 μM IRIS peptide + 5 μM cisplatin
Excerpt: HOSE cells overexpressing IRIS show a higher degree of resistance to cisplatin than HOSE cells (compare blue to black line in FIG. 30).

SKOV3 cells = assay: Invasion assay, matrigel-coated Boyden chambers, SKOV3; format: cell-based, human; details: 72 hours, IRIS peptide 5 μM, versus control-treated cells
Protocol: Invasion assay: Control (transfected with siLuc or treated with scrambled peptide, 5 μM) or shIRIS expressing SKOV3 cells were layered on top of matrigel-coated Boyden chambers. Some cultures were treated with 5 μM IRIS peptide. Seventy-two hours later, cells that invaded the matrigel and migrated to the lower side of the chambers were stained with Crystal Violet, counted and photographed. […] Similarly, BRCA1-IRIS silenced cells also lost their invasion ability by ˜75 fold (compare C to A in FIG. 36 and FIG. 35).
Cell Invasion assay. Growth reduced BD Matrigel™ invasion chamber (24 well plate, 8.0 μm, BD BioCoat™) was used to study the invasion ability of control and shBRCA1-IRIS cells. Cells (5×10^3) in complete medium (500 μl) were seeded on the upper compartment, and the lower compartment was filled with 750 μl of complete growth medium. Cells were incubated for 72 hours. The medium from the upper chamber was removed, and the cells on the upper surface of the membrane were removed carefully with a cotton swab. Invasive cells in lower side of the membrane were stained with crystal violet dye for 10 minutes. After staining, the upper chamber was rinse thoroughly with water until the water runs clear. Stained and dry chambers were visualized with microscope and photographed.

BRCA1-IRIS = BRCA1-IRIS expression in breast cells (Western); format: cell-based, human
Protocol: HME and HME/IRIS cells were treated with 10, 20 and 50 μM of paclitaxel for 24 hours. Compared to HME/IRIS cells, untreated HME cells express very low level of BRCA1-IRIS (FIG. 68, left). […] Both EGF and NRG1, which were secreted at higher levels from untreated HME/IRIS cells, remained high after paclitaxel (until ˜50 μM, FIG. 68, left), whereas in HME cells, both were induced by low paclitaxel treatment (FIG. 68, left). Consistently, in HME/IRIS cells EGFR was phosphorylated on Y1173 (activated by EGF when EGFR is in complex with ErbB2) and ErbB2 on Y1248 (activated by NRG1 when ErbB2 is in complex with ErbB3) remained the same after paclitaxel treatment (until ˜50 μM, FIG. 68, left). Phosphorylated EGFR-Y1173 and ErbB2-Y1248 was only observed in paclitaxel treated HME cells, especially at low concentration (FIG. 68, left).
Survived/paclitaxel-resistant cells were then propagated in the absence of paclitaxel and analyzed. Again, the intrinsically high level of BRCA1-IRIS was not affected by paclitaxel in HME/IRIS cells (FIG. 69, left). […] The expressions of EGFR, ErbB2 and ErbB3 were high in HME/IRIS and HME cells (FIG. 69, left). Despite an intrinsic increase in HME/IRIS and paclitaxel-acquired increase in HME cells in AKT activation, FOXO inactivation/degradation and thus activation increase in CyclinD1, survivin, Bcl-2, Bcl-xL and NF-κB was observed (FIG. 69, right).
To test that hypothesis, an intron 11 peptide (right in FIG. 26) fused to a cell/nucleus penetrating signal at its N-terminus (left in FIG. 26) was synthesized (hereafter IRIS peptide). First, to assess the effect of this IRIS peptide, equal numbers of HME, HME/IRIS, MDA-MB-231, MDA-MB-468 and BT549 cells were exposed to increasing concentrations of scrambled or IRIS peptide for 48 hours. […] It is possible that preventing BRCA1-IRIS-X complex formation destabilizes BRCA1-IRIS and perhaps leads to its degradation.
To investigate whether inactivating BRCA1-IRIS could sensitize TNBC to paclitaxel-induced cell death, HME cells were exposed to 0.5 μM, while HME/IRIS, MDA-MB-231, MDA-MB-468 and BT549 cells were exposed to 5 μM of IRIS peptide alone or with 5, 10 or 20 μM of paclitaxel for 24 hours. […] Again, IRIS peptide alone at these concentrations led to 50% reduction in survival of all cell lines. […] Indeed, in the presence of IRIS peptide >60%, >70% and >90% reduction in the survival of all cell lines in the presence of 5, 10 and 20 μM of paclitaxel, respectively (FIG. 84).
To relate the effect of IRIS peptide on cell survival to the effect of BRCA1-IRIS on AKT and ERK survival pathways, MDA-MB-231 and MDA-MB-468 were treated with vehicle, 5 μM of IRIS peptide, 10 μM LY294002, 10 μM PD98059 for 24 hours or were transfected with BRCA1-IRIS siRNA for 72 hours.

MDA-MB-468 tumors = assay: In vivo efficacy on established MDA-MB-468 tumors; design: species or system mice; details: day 12; IRIS peptide 10 mg/kg i.t.; combination at half the concentrations
Protocol: Nude 6-8 weeks female mice were injected with 2×10^6 of MDA-MB-468 cells in the 2nd left and 4th right mammary fat pads. When all tumors reached ˜0.1 cm^3 in volume, mice were divided into four groups, one received vehicles (i.e. DMSO injected intraperitoneally [i.p.] and scrambled peptide injected directly into tumors [i.t.]), another received paclitaxel (10 mg/kg, i.p.), the third received IRIS peptide at (10 mg/kg, i.t.), and the last received paclitaxel and IRIS peptide at half the concentrations, injected as above. Drugs were delivered every third day for total of four injections.
In Vivo efficacy of BRCA1-IRIS-inhibitory peptide. Six to eight week old female athymic SCID mice were injected in the second right and the fourth left mammary gland with 2.5×10^6 of MDAMB468 cells. Tumor growth was followed daily until tumors reached 100 mm^3. At this time mice were randomly grouped into four different groups that were injected: a) with DMSO (i.p.) and scrambled peptide (10 mg/kg) intra-tumoral (i.t.), b) injected with IRIS peptide (10 mg/kg, i.t.), c) injected with paclitaxel (10 mg/kg, i.p.), d) injected with IRIS peptide (5 mg/kg, i.t.), and paclitaxel (5 mg/kg, i.p.). […] Change in tumor volume was measured to monitor the efficacy of the treatments using caliper and is represented as percentage of volume at day 0 of treatment. […]

MDA-MB-231 cells = details: 48 h
Protocol: (§1) All cell lines were exposed to increasing concentrations of paclitaxel and BRCA1-IRIS expression, and cells' viability was then measured.
(§2) Stable clones were then exposed to 0, 10 or 20 μM of EGFR (Erlotinib), ErbB2 (CP-724714), PI3′K/AKT (LY294002), p38 (SB203580), ERK (PD98059) or JNK (SP600125) inhibitors for 24 hours.
(§3) Cell viability under different experimental conditions was determined using the MTS assay. Briefly, cells (2.5×10^4 cells per well) were seeded in 96-well plates and incubated overnight at 37° C. in 10% humidified CO2 atmosphere. The next day they were incubated with varying concentration of peptide, or inhibitors for 24 hours at 37° C. Cell viability was determined using cell Titer 96® Aqueous (Promega, Madison, Wis., USA) following manufacturer's instructions. Cell viability (%) was expressed as a ratio of treated cells to control cells×100. Growth inhibition was also determined by manually counting cells in five different microscopic fields. Change in cell numbers (fold) was expressed as a ratio of the means of these recording of treated cells compared to control cells×100. Each experiment was done in triplicate, repeated three separate times.

MDA-MB-468 cells = details: 48 h
Protocol: as §1, §2, §3

RRIRPRPPRLPRPRPRPLPFPRPGIGTRFLCLPQSIYRSELNVYAFGEHILQISKYS [IRIS peptide]
expression of BRCA1-IRIS, TrkB, ErbB2, AKT, p-AKT, p-FOXO, Cyclin D1, Bcl-2 and survivin [1]: significant decrease | decreased ability to invade (SKOV3 cells): ~100 fold | BRCA1-IRIS expression (BRCA1-IRIS; HME, HME/IRIS and TNBC cell lines, 5 μM of IRIS peptide for 24 hours): significant reduction in BRCA1-IRIS expression | BRCA1-IRIS expression (BRCA1-IRIS; MDA-MB-231 and MDA-MB-468, 5 μM IRIS peptide, 10 μM LY294002 or 10 μM PD98059 24 hours, siRNA 72 hours): significantly decreased in both cell lines | BRCA1-IRIS expression (BRCA1-IRIS; all cell lines, IRIS peptide 0.5 μM (HME) or 5 μM (others), 24 hours): completely abolished BRCA1-IRIS expression in all cell lines | tumor size as % of original size (at day 0) (MDA-MB-468 tumors): ~75% | pIC50 (MDA-MB-231 cells): ~5.30 | pIC50 (MDA-MB-468 cells): ~5.30
